Assay results from patent US4808718A, “Fused polycyclic and bridged compounds useful as calcium channel blockers” (Merck & Co., Inc., priority 1986, dated 1989).
Like-named read-outs stand apart in the source and are kept apart here.

Biological target: T1, nitrendipine binding (purified sarcolemal vesicles) (Homo sapiens, UniProt Q13936)
T1 construct: purified sarcolemal vesicles in 50 mM tris-HCl; from tissue
Assay: nitrendipine binding assay ([^3 H] nitrendipine, purified sarcolemal vesicles)
Protocol: As stated earlier, the compounds of the present invention have a property that enables them to be used as calcium entry blockers in the treatment of cardiovascular disorders.
In a representative assay, […] of purified sarcolemal vesicles in 50 mM tris-HCl, 10 uM calcium chloride, and […] magnesium chloride at pH 7.4 were incubated with […] [^3 H] nitrendipine (78 Ci/mmol) with or without test compound in a final volume of […] for 3 hours at 25° C. The inhibition constant Ki is determined according to the following equation: [formula] where I50 is the compound concentration that produces 50 percent inhibiton of binding, [L] is ligand concentration, and kd is the affinity constant of the ligand.

[1] = purified sarcolemal vesicles, 50 mM tris-HCl, pH 7.4, 0.23 mM [^3 H] nitrendipine, 3 hours at 25° C., read-out: Ki, Inhibition of Nitrendipine Binding

T1 sequence (Q13936 whole entry): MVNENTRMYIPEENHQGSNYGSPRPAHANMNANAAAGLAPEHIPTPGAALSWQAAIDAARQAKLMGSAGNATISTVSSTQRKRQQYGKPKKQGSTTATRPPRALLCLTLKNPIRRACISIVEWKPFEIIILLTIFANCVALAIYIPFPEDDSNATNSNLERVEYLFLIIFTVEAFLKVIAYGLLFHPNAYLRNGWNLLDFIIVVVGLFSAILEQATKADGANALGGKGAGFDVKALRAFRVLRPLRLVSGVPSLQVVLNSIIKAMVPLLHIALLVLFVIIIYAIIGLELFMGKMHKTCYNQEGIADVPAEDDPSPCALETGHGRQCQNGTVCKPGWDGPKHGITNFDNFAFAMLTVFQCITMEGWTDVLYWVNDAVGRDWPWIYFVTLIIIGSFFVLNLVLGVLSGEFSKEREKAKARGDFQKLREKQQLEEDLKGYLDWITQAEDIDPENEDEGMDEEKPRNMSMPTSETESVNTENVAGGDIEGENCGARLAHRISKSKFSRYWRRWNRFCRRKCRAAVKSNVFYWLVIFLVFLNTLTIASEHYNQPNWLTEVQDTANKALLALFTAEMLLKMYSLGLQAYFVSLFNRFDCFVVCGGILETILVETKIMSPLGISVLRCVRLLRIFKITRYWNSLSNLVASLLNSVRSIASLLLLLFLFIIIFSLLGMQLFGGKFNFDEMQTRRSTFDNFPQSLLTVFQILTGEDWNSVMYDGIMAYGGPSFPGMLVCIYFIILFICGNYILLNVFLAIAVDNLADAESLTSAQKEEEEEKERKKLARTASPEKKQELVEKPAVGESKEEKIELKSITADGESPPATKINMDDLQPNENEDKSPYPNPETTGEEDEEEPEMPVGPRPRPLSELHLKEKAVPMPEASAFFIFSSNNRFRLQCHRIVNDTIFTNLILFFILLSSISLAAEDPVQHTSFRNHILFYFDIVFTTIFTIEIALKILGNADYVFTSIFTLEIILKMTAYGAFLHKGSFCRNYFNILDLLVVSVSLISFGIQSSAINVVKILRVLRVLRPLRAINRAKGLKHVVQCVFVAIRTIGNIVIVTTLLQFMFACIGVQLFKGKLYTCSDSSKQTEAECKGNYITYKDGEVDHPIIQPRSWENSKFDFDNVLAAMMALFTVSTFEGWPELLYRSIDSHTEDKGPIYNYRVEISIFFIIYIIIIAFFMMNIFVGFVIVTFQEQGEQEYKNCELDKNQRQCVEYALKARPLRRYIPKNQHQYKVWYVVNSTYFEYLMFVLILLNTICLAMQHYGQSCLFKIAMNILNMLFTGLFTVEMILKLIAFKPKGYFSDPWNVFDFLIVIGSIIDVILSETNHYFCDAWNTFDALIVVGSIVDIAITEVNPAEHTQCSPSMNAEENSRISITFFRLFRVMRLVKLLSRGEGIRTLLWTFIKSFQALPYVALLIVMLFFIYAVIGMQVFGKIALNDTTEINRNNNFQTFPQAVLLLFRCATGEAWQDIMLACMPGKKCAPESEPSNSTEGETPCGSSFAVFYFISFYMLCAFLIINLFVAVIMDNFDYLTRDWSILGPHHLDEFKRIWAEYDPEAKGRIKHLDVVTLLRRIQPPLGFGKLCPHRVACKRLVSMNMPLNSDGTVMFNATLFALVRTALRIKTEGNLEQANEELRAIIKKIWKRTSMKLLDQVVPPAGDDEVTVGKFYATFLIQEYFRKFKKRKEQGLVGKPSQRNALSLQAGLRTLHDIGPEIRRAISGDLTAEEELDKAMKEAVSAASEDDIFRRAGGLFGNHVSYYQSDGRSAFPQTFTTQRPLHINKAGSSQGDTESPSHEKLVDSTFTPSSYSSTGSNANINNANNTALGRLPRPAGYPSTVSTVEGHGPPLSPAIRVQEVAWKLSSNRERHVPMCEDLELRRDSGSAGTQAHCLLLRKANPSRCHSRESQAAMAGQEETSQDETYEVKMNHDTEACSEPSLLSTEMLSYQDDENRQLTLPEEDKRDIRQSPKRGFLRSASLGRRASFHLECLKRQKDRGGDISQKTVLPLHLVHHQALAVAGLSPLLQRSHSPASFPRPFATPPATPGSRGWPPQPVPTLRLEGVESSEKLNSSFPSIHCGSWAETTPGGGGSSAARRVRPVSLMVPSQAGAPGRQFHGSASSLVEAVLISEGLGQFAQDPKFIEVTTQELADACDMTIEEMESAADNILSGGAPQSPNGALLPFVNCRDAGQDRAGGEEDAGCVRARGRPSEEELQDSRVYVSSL
T1 sequence (P54289 25-944 partner limits assumed): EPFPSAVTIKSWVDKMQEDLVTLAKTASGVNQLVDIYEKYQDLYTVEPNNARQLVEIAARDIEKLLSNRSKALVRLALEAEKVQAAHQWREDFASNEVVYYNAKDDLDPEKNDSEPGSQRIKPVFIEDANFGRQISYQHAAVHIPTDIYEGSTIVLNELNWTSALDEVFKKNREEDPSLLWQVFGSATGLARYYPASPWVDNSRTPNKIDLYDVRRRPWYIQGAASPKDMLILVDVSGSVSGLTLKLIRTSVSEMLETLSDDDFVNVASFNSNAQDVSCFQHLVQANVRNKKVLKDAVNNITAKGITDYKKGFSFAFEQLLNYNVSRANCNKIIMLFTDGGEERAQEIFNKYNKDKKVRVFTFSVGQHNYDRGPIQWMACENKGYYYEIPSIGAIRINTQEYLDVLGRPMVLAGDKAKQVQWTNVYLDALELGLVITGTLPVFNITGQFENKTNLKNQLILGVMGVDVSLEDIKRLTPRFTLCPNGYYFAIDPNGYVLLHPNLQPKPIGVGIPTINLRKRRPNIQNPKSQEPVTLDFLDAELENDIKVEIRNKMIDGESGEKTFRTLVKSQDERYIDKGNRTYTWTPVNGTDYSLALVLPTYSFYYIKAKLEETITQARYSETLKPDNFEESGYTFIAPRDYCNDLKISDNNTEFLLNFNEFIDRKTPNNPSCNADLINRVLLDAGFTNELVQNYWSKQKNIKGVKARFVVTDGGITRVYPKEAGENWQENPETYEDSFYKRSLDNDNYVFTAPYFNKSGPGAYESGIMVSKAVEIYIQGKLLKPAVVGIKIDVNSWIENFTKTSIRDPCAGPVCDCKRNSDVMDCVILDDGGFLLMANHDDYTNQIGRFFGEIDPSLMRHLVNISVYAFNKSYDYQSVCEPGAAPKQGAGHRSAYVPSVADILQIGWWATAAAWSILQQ
T1 sequence (P54289 945-1103 partner limits assumed): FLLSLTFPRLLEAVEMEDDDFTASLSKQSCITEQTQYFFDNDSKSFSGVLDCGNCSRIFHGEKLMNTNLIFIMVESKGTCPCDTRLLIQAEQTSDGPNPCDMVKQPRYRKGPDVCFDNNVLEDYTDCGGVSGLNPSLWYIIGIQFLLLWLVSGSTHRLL
T1 sequence (Q08289 whole entry partner): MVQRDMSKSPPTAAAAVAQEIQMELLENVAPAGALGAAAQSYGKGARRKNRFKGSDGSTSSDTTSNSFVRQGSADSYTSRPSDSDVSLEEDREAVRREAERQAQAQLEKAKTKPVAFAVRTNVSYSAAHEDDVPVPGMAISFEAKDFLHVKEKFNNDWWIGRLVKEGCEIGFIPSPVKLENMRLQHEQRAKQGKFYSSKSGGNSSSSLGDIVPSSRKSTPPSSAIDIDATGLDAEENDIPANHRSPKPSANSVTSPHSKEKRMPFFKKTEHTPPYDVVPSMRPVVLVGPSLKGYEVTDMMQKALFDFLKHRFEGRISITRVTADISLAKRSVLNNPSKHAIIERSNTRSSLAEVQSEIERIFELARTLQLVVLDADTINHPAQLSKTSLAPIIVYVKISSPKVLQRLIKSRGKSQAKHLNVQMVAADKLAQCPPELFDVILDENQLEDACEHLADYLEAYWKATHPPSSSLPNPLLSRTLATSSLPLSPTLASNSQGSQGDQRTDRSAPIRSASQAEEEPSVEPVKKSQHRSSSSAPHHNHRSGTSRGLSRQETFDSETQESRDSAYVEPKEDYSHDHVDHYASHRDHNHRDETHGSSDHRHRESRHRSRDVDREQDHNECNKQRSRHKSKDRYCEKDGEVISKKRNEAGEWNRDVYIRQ

SMILES | Ki [µM] | Ki [1] [µM]
COC(=O)C1C(c2ccccc2)C2(C(=O)OC)C(C)=NC1(C)CC2C[Si](C)(C)C (stereo not drawn) [Example 1, Dimethyl 1,3-dimethyl-5-phenyl-8-[(trimethylsilyl)methyl]-2-azabicyclo[2.2.2]oct-2-ene-4,6-dicarboxylate] | 17 | –
COC(=O)C1C(c2ccccc2)C2(C(=O)OC)C(C)=NC1(C)CC2c1ccccc1 (stereo not drawn) [Example 2] | – | 34
COC(=O)C1C(c2ccccc2)C2(C(=O)OC)C(C)=NC1(C)C1CC=CC12 (stereo not drawn) [Example 3, Dimethyl 1,4A,7,8A-tetrahydro-1,3-dimethyl-8-phenyl-1,4-ethano-4H-2-azetidinyl-4,9-dicarboxylate] | – | 61
